Experimental data: ChEMBL document CHEMBL5233262, “Anti-inflammatory activity of naturally occuring diarylheptanoids - A review” (Bioorg Med Chem, 2021)
Each block holds one molecule with its values, some of them ahead of it.

Legend:
[1] = Cytotoxicity against mouse RAW264.7 cells assessed as reduction in cell viability by MTT assay; type: toxicity, cell-based
RAW264.7 [2] = test: Antiinflammatory activity in mouse RAW264.7 cells assessed as inhibition of LPS-induced NO production preincubated for 0.5 hrs followed by LPS stimulation and measured after 24 hrs by Griess reagent based analysis; type: functional, cell-based
Hepatocyte [3] = test: Hepatoprotective activity against CCL4-induced rat hepatocyte toxicity assessed as decrease in TNF-alpha level at 1 uM preincubated for 30 mins followed by CCL4 addition and measured after 180 mins by ELISA; type: functional; design: scale not given: the % may be the effect or the level left; settings: time 210 min
Hepatocyte [4] = test: Hepatoprotective activity against CCL4-induced rat hepatocyte toxicity assessed as decrease in TBARS level by measuring MDA formation at 1 uM preincubated for 30 mins followed by CCL4 addition and measured after 180 mins by TBARS method; type: functional; design: scale not given: the % may be the effect or the level left; settings: time 210 min
Hepatocyte [5] = test: Hepatoprotective activity against CCL4-induced rat hepatocyte toxicity assessed as decrease in ALT level at 1 uM preincubated for 30 mins followed by CCL4 addition and measured after 180 mins by colorimetric method; type: functional; design: scale not given: the % may be the effect or the level left; settings: time 210 min
RAW264.7 [6] = test: Antiinflammatory activity in mouse RAW264.7 cells assessed as inhibition of LPS-induced TNFalpha level preincubated for 1 hrs followed by LPS stimulation and measured after 24 hrs by ELISA; type: functional, cell-based
RAW264.7 [7] = test: Antiinflammatory activity in mouse RAW264.7 cells assessed as inhibition of LPS-induced NO production preincubated for 1 hrs followed by LPS stimulation and measured after 24 hrs by Griess method; type: functional, cell-based
Hepatocyte [8] = test: Hepatoprotective activity against CCL4-induced rat hepatocyte toxicity assessed as decrease in IL-1beta level at 1 uM preincubated for 30 mins followed by CCL4 addition and measured after 180 mins by ELISA; type: functional; design: scale not given: the % may be the effect or the level left; settings: time 210 min
J774.1 [9] = test: Antiinflammatory activity in mouse J774.1 cells assessed as inhibition of LPS-induced NO production at 100 microg/ml; type: functional
J774.1 [10] = test: Cytotoxicity in mouse J774.1 cells assessed as reduction in cell viability at 100 microg/ml; type: toxicity, cell-based; settings: at 100 µg/mL
J774.1 [11] = test: Antiinflammatory activity in mouse J774.1 cells assessed as inhibition of LPS-induced NO production incubated for 48 hrs by Griess reagent based analysis; type: functional, cell-based; settings: Mus musculus, J774.1, 48 h
RAW264.7 [12] = test: Antiinflammatory activity in mouse RAW264.7 cells assessed as inhibition of LPS-induced IL-6 production at 10 uM preincubated for 2 hrs followed by LPS stimulation and measured after 24 hrs by ELISA; type: functional; settings: time 26 hrs
RAW264.7 [13] = test: Antiinflammatory activity in mouse RAW264.7 cells assessed as inhibition of LPS-induced NO production at 30 uM preincubated for 2 hrs followed by LPS stimulation and measured after 24 hrs by Griess method; type: functional; settings: time 26 hrs
RAW264.7 [14] = test: Antiinflammatory activity in mouse RAW264.7 cells assessed as inhibition of LPS-induced NO production at 100 uM preincubated for 2 hrs followed by LPS stimulation and measured after 24 hrs by Griess method; type: functional; settings: time 26 hrs
RAW264.7 [15] = test: Antiinflammatory activity in mouse RAW264.7 cells assessed as inhibition of LPS-induced TNFalpha production at 100 uM preincubated for 2 hrs followed by LPS stimulation and measured after 24 hrs by ELISA; type: functional; settings: time 26 hrs
RAW264.7 [16] = test: Antiinflammatory activity in mouse RAW264.7 cells assessed as inhibition of LPS-induced NO production at 3 uM preincubated for 2 hrs followed by LPS stimulation and measured after 24 hrs by Griess method; type: functional; settings: time 26 hrs
RAW264.7 [17] = test: Antiinflammatory activity in mouse RAW264.7 cells assessed as inhibition of LPS-induced IL-6 production at 30 uM preincubated for 2 hrs followed by LPS stimulation and measured after 24 hrs by ELISA; type: functional; settings: time 26 hrs
RAW264.7 [18] = test: Antiinflammatory activity in mouse RAW264.7 cells assessed as inhibition of LPS-induced TNFalpha production at 3 uM preincubated for 2 hrs followed by LPS stimulation and measured after 24 hrs by ELISA; type: functional; settings: time 26 hrs
RAW264.7 [19] = test: Antiinflammatory activity in mouse RAW264.7 cells assessed as inhibition of LPS-induced TNFalpha production at 30 uM preincubated for 2 hrs followed by LPS stimulation and measured after 24 hrs by ELISA; type: functional; settings: time 26 hrs
RAW264.7 [20] = test: Antiinflammatory activity in mouse RAW264.7 cells assessed as inhibition of LPS-induced NO production at 10 uM preincubated for 2 hrs followed by LPS stimulation and measured after 24 hrs by Griess method; type: functional; settings: time 26 hrs
RAW264.7 [21] = test: Antiinflammatory activity in mouse RAW264.7 cells assessed as inhibition of LPS-induced IL-6 production at 3 uM preincubated for 2 hrs followed by LPS stimulation and measured after 24 hrs by ELISA; type: functional; settings: time 26 hrs
RAW264.7 [22] = test: Antiinflammatory activity in mouse RAW264.7 cells assessed as inhibition of LPS-induced IL-6 production at 100 uM preincubated for 2 hrs followed by LPS stimulation and measured after 24 hrs by ELISA; type: functional; settings: time 26 hrs
RAW264.7 [23] = test: Antiinflammatory activity in mouse RAW264.7 cells assessed as inhibition of LPS-induced TNFalpha production at 10 uM preincubated for 2 hrs followed by LPS stimulation and measured after 24 hrs by ELISA; type: functional; settings: time 26 hrs
BV-2 = test: Antiinflammatory activity in mouse BV-2 cells assessed as inhibition of LPS-induced NO production at 10 uM preincubated for 1 hrs followed by LPS stimulation and measured after 24 hrs by Griess assay; type: functional; settings: time 25 hrs

IC50 (RAW264.7 [2]): 8.6 µM
Structure (SMILES): O=C(/C=C/C=C/c1ccc(O)c(O)c1)CCc1ccc(O)c(O)c1
IC50 [1]: 36.4 µM

IC50 (RAW264.7 [6]): 11.2 µM
IC50 (RAW264.7 [7]): 12.3 µM
Structure (SMILES): COc1cc(/C=C/C(=O)CC(=O)/C=C/c2ccc(O)c(OC)c2)ccc1O [CURCUMIN]
Activity (Hepatocyte [3]): 37.1%
Activity (Hepatocyte [4]): 39.2%
Activity (Hepatocyte [5]): 57.6%
Activity (Hepatocyte [8]): 63.3%

IC50 (J774.1 [11]): 104 µM
Structure (SMILES): COc1cc(O)c([C@@H](/C=C/C[C@@H](O)CCc2ccc(O)cc2)c2ccc(O)cc2)c2oc(-c3ccc(O)cc3)cc(=O)c12 (stereo in doubt; 112)
inhibition at 100 µg/mL (J774.1 [9]): 90%
Activity (J774.1 [10]): 85%

The remaining lines, values behind:

Structure (SMILES): COc1cc(O)c([C@H](/C=C/C[C@@H](O)CCc2ccc(O)cc2)c2ccc(O)cc2)c(O)c1C(=O)/C=C/c1ccc(O)cc1
inhibition at 100 µg/mL (J774.1 [9]): 90%
Activity (J774.1 [10]): 85%
IC50 (J774.1 [11]): 84 µM

Structure (SMILES): COc1cc(CC[C@H](O)C[C@H](O)[C@@H](O)Cc2ccc(O)cc2)ccc1O
inhibition at 10 µM (RAW264.7 [12]): 57%
inhibition at 30 µM (RAW264.7 [13]): 43%
inhibition at 100 µM (RAW264.7 [14]): 43%
inhibition at 100 µM (RAW264.7 [15]): 39%
inhibition at 3 µM (RAW264.7 [16]): 43%
inhibition at 30 µM (RAW264.7 [17]): 57%
inhibition at 3 µM (RAW264.7 [18]): 39%
inhibition at 30 µM (RAW264.7 [19]): 39%
inhibition at 10 µM (RAW264.7 [20]): 43%
inhibition at 3 µM (RAW264.7 [21]): 57%
inhibition at 100 µM (RAW264.7 [22]): 57%
inhibition at 10 µM (RAW264.7 [23]): 39%

Structure (SMILES): COc1cc(CC[C@H](O)C[C@H](O)[C@@H](O)Cc2ccc(O)c(OC)c2)ccc1O
inhibition at 10 µM (RAW264.7 [12]): 43%
inhibition at 30 µM (RAW264.7 [13]): 39%
inhibition at 100 µM (RAW264.7 [14]): 39%
inhibition at 100 µM (RAW264.7 [15]): 34%
inhibition at 3 µM (RAW264.7 [16]): 39%
inhibition at 30 µM (RAW264.7 [17]): 43%
inhibition at 3 µM (RAW264.7 [18]): 34%
inhibition at 30 µM (RAW264.7 [19]): 34%
inhibition at 10 µM (RAW264.7 [20]): 39%
inhibition at 3 µM (RAW264.7 [21]): 43%
inhibition at 100 µM (RAW264.7 [22]): 43%
inhibition at 10 µM (RAW264.7 [23]): 34%

Structure (SMILES): Oc1ccc(CC[C@@H](O)C[C@@H](O)CCc2ccc(O)cc2)cc1
inhibition at 10 µM (BV-2): 65.2%
